# Several values for one entry are separate records, joined by “and”; a condition that tells them apart may be missing. Equal entries are not always repeated.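 Five concentrations, 48 hours, 96-well plates. Here, GI50 denotes the concentration required for 50% inhibition of growth. Definition used: TGI = concentration required for complete inhibition of growth.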
# Legend:
# Test in all cases: NCI tumour cell line growth inhibition, 48 h
# [1] = system: DMS 273 small cell lung
# [2] = system: HOP-18 NSCLC
# [3] = system: RXF-631 renal
# [4] = system: SNB-78 CNS
# [5] = system: DMS 114 small cell lung
# [6] = system: LXFL 529 NSCLC
# [7] = system: M19-MEL melanoma
# [8] = system: MDA-N
# [9] = system: P388/ADR leukemia
# [10] = system: SN12K1 renal
# [11] = system: P388 leukemia
# [12] = system: XF 498 CNS
SMILES,TGI [1],TGI [2],TGI [3],TGI [4],TGI [5],TGI [6],TGI [7],GI50 [2],TGI [8],TGI [9],TGI [10],TGI [11],TGI [12],GI50 [8]
CC(=O)OC(C)(C)C1CC[C@]2(C)/C=C/C(C)C[C@@H](O)/C=C(\C)CC(O)C12 (stereo partly drawn),> 100 µM,> 100 µM,> 100 µM,> 100 µM,> 100 µM,> 100 µM,> 100 µM,–,–,–,–,–,–,–
O=C(O)CN1CCSc2ccccc2CN(CC(=O)O)CCSc2ccccc2C1,> 100 µM,> 100 µM,–,> 100 µM,–,> 100 µM,> 100 µM,–,–,–,–,–,–,–
C=C(Br)C(C)(Cl)CCC(Br)C(C)(C)Br (stereo not drawn),> 100 µM,> 100 µM,–,> 100 µM,76 µM,> 100 µM,> 100 µM,–,–,–,–,–,–,–
O=C([CH-]C(=O)c1ccccc1)c1ccccc1.O=C([CH-]C(=O)c1ccccc1)c1ccccc1.O=C([CH-]C(=O)c1ccccc1)c1ccccc1.[Ga+3],–,> 100 µM,–,–,–,–,–,39.7 µM,–,–,–,–,–,–
O=C(O)/C=C/c1ccc(O)c(O)c1,> 100 µM,> 100 µM,> 100 µM,> 100 µM,> 100 µM,> 100 µM,> 100 µM,–,–,–,–,–,–,–
O=C(O)/C=C\C(=O)Nc1ccc2c(c1)-c1ccccc1C2,–,–,–,–,–,–,–,–,> 100 µM,–,–,–,–,–
Cc1c2cnccc2c(C)c2c1c1ccccc1n2CCOC(=O)c1ccccc1,18 µM,> 100 µM,–,85.4 µM,30.6 µM,–,31.8 µM,–,> 100 µM,35.1 µM,26.6 µM,41.4 µM,5.64 µM,–
CC(=O)C1(O)CC2(c3ccccc3)C(=O)C1(c1ccccc1)C(c1ccccc1)=C2c1ccccc1 (stereo not drawn),> 100 µM,–,> 100 µM,> 100 µM,> 100 µM,> 100 µM,> 100 µM,–,–,–,–,–,> 100 µM,–
O=C1CSC(c2c[nH]c3ccccc23)N1c1cccc(Cl)c1 (stereo not drawn),–,–,–,–,–,–,–,–,> 100 µM,–,–,–,–,–
COC(=O)c1cc2ccc(O)c(O)c2cn1,–,–,–,–,–,–,–,–,2.89 µM and 3.69 µM,–,–,–,–,1.89 µM
O=C(CCc1nnc2s/c(=C\c3ccc([N+](=O)[O-])cc3)c(=O)n12)Nc1ccc(Cl)c(Cl)c1,54.4 µM,–,> 100 µM,52.8 µM,33.4 µM,26.2 µM,> 100 µM,–,–,–,–,–,45.5 µM,–
CC(=O)N1C/C(=C\c2ccccc2)C(=O)/C(=C/c2ccccc2)C1,12.1 µM,32.9 µM,–,53.4 µM,–,21.6 µM,10.7 µM,–,–,–,–,–,49.3 µM,–
CC(C)(CN1CCCCC1)C(=O)/C=C/c1ccccc1,36.5 µM,–,59 µM,80.9 µM,42 µM,34.7 µM,52.3 µM,–,–,–,–,–,29.9 µM,–
CC1CCCCCC(=O)c2c(O)cc(O)cc2CC(=O)O1 (stereo not drawn),–,–,–,–,–,–,–,–,> 100 µM,–,–,–,–,–
C/C(=N/NC(=O)c1ccccc1S(N)(=O)=O)C(CN1CCCCC1)C(C1=C(O)C2C=CC=CC2OC1=O)c1ccccc1 (stereo not drawn),–,> 100 µM,> 100 µM,> 100 µM,–,> 100 µM,> 100 µM,–,–,–,–,–,> 100 µM,–
Cn1cc(C2NC(=O)c3ccccc3N2)c2ccccc21 (stereo not drawn),–,–,–,–,–,–,–,–,0.591 µM,–,–,–,–,–
O=C(/C=C/c1ccccc1)NC1C=Nc2ccc([N+](=O)[O-])cc2NC1=O (stereo not drawn),> 100 µM,–,–,> 100 µM,> 100 µM,> 100 µM,> 100 µM,–,–,–,–,–,> 100 µM,–
CCNC1=C(NC(=O)c2ccc(F)cc2)C(=O)c2ccccc2C1=O,–,–,–,–,–,–,–,–,> 100 µM,–,–,–,–,–
C[C@@H]1C(=O)CC2C(C)(C)CCC[C@]2(C)[C@@]12CC[C@]1(C=COC1)O2 (stereo partly drawn),> 100 µM,> 100 µM,–,> 100 µM,> 100 µM,–,> 100 µM,–,–,–,–,–,–,–
Cc1c(C(Cc2ccccc2N(C)C(=O)/C=C\C(=O)O)c2c[nH]c3ccccc23)c2ccccc2n1C (stereo not drawn),32.7 µM,–,27.9 µM,53.8 µM,27.5 µM,26 µM,30.5 µM,–,–,–,–,–,36.9 µM,–
NC1=C(O)c2cccc3cccc(c23)C1=O,> 100 µM,> 100 µM,> 100 µM,> 100 µM,> 100 µM,> 100 µM,> 100 µM,–,–,–,–,–,–,–
Cc1cc(N(CCC#N)CCC#N)ccc1/C=C(\NC(=O)/C=C/c1ccccc1)C(=O)N=[N+]=[N-],> 100 µM,–,–,> 100 µM,> 100 µM,> 100 µM,> 100 µM,–,–,–,–,–,69.9 µM,–
